{"source": "patent US6924311B2", "about": "“Methods for affecting various diseases utilizing LXR compounds” (X-Ceptor Therapeutics, Inc., priority 2001, dated 2005)", "key": {"ABCA1 mRNA": {"tested_on": "ABCA1 mRNA", "experiment": "Intestinal mucosa ABCA1 mRNA by quantitative PCR in treated mice", "format": "in vivo", "conditions": "daily oral 7 days", "protocol": "The LXR pan-agonist-dependent inhibition of cholesterol absorption is believed to result from the ability of LXRs to induce the expression of ATP binding cassette transporters such as ABCA1 in the intestine. To examine the contributions of LXRα and LXRβ to intestinal gene expression and dietary cholesterol absorption, Compound 1 was administered to wildtype, LXRα−/−, LXRβ−/− and LXRαβ−/− mice for seven days by daily oral gavage in a sesame oil/ethanol vehicle via a 1 cc syringe fitted with a 20G disposable feeding needle. Compound was solvated in ethanol (5% final volume) and brought up to final volume with sesame oil (Sigma, St. Louis, Mo.). Three hours after the final dose (day 7) animals were sacrificed, intestines were harvested, and intestinal enterocytes were isolated by gently scraping the mucosa layer away from the rest of the tissue. Total intestinal mucosa RNA was isolated using RNeasy kits (QIAGEN Inc.) according to the supplier's total RNA isolation procedure. The RNA samples were further treated with deoxyribonuclease I to eliminate contaminating genomic DNA. ABCA1 mRNA levels were than analyzed by real-time based quantitative PCR using Perkin Elmer ABI Prism 7700 and Sequence Detection System software (Perkin Elmer). […] No induction is observed in LXRαβ−/− mice. Thus either LXRα or LXRβ alone is sufficient to induce ABCA1 in the intestine and inhibit the absorption of dietary cholesterol."}, "ABCG1 mRNA": {"tested_on": "ABCG1 mRNA", "experiment": "ABCG1 mRNA induction in cultured peritoneal macrophages", "format": "cell-based, mice", "conditions": "24 hours", "excerpt": "The individual contributions of both receptors to macrophage gene expression were examined by first measuring the amount of mRNA encoding LXRα and LXRβ in thioglycolate-elicited peritoneal macrophages obtained from mixed wildtype mice. Thioglycolate-elicited peritoneal macrophages were isolated from mice 4 days after peritoneal injection of thioglycolate media. Peritoneal macrophages were harvested by lavage of the peritoneum with phosphate buffered saline (PBS), cells were washed, transferred to 60 mm culture plates and incubated at 37° C. in RPMI 1640 media (Life Technologies) containing 10% FBS, 2 mmol/L glutamine, 100 μg/mL streptomycin and 100 IU penicillin (Life Technologies). After 5 hours at 37° C., cells were washed 5 times with PBS to remove non-adherent cells and adherent cells were further incubated in RPMI 1640 media supplemented with 10% FBS for 24 hours. To determine the mRNA levels of LXRα and LXRβ, after 24 hours total RNA was isolated from cultured macrophages using RNeasy kits (QIAGEN Inc.) according to the supplier's total RNA isolation procedure. The RNA samples were further treated with deoxyribonuclease I to eliminate contaminating genomic DNA. LXRα and LXRβ mRNA levels were than analyzed by real-time based quantitative PCR using Perkin Elmer ABI Prism 7700 and Sequence Detection System software (Perkin Elmer). […] To further examine LXR-dependent gene expression in macrophages, peritoneal macrophages were isolated as described above from mixed wildtype, LXRα−/− (C57BL/6), LXRβ−/−, and LXRαβ−/− mice. After removal of non-adherent cells, the remaining macrophages were than cultured in either the absence or presence of LXR pan-agonist (1.0 μM Compound 1) for 24 hours. At the end of the experiment total RNA was isolated from cultured macrophages using RNeasy kits (QIAGEN Inc.) according to the supplier's total RNA isolation procedure. RNA samples were further treated with deoxyribonuclease I to eliminate contaminating genomic DNA before use. The LXR agonist-dependent induction of the ABCA1 and ABCG1 mRNAs were than analyzed by real-time based quantitative PCR using Perkin Elmer ABI Prism 7700 and Sequence Detection System software (Perkin Elmer). ABCA1 and ABCG1 function as efflux pumps that mediate the transfer of intracellular cholesterol out of cells to HDL particles, a process referred to as reverse cholesterol transport. […] Elimination of LXRα activity (LXRα−/−) has no effect on the agonist-dependent response. In contrast, elimination of LXRβ activity (LXRβ−/−) reduces the agonist-dependent induction of ABCA1 by 82% and the ABCG1 induction by 50%. […] Thus LXRβ alone is sufficient to allow the maximum induction of ABCA1 and ABCG1 in peritoneal macrophages."}}}
{"smiles": "O=S(=O)(c1ccccc1)N(CC(F)(F)F)c1ccc(C(O)(C(F)(F)F)C(F)(F)F)cc1", "note": "[Compound 1, N-(2,2,2-trifluoroethyl)-N-[4-(2,2,2-trifluoro-1-hydroxy-1-trifluoromethylethyl)-phenyl]-benzene sulfonamide]", "values": [{"measurement": "ABCA1 mRNA induction in the intestine", "setting": "ABCA1 mRNA; LXRαβ−/− mice", "result": "No induction"}, {"measurement": "ABCA1 mRNA fold induction in the intestine", "setting": "ABCA1 mRNA; LXRα−/− mice, depending on the strain", "result": "7-14 fold"}, {"measurement": "ABCA1 mRNA fold induction in the intestine", "setting": "ABCA1 mRNA; LXRβ−/− mice", "result": 9, "unit": "fold"}, {"measurement": "ABCA1 mRNA fold induction in the intestine", "setting": "ABCA1 mRNA; wildtype mice, depending on the strain", "result": "14-29 fold"}, {"measurement": "agonist-dependent ABCG1 mRNA induction", "setting": "ABCG1 mRNA; LXRαβ−/− macrophages, 1.0 μM", "result": "completely blocks the response"}, {"measurement": "agonist-dependent ABCG1 mRNA induction", "setting": "ABCG1 mRNA; LXRα−/− macrophages, 1.0 μM", "result": "no effect"}, {"measurement": "reduction of agonist-dependent induction of ABCG1", "setting": "ABCG1 mRNA; LXRβ−/− macrophages versus wildtype, 1.0 μM", "result": 50, "unit": "%"}, {"measurement": "fold induction at 1 µM", "setting": "ABCG1 mRNA; Mus musculus, Macrophage, wildtype macrophages", "result": 8}]}
